Results published in patent US20220339596A1, “METHOD FOR PRODUCING RADICALS, METHOD FOR STERILIZING SPORES, AND CANCER TREATMENT DRUG” (priority 2019, published 2022).
Like-named read-outs stand apart in the source and are kept apart here.

Experiments:
Candida albicans = type: cell-based
[1] = test system: Spores of Bacillus subtilis; type: cell-based
Protocol: Bacillus subtilis was scattered over a nutrient agar medium and incubated at 37° C. for 1 week. Colonies were scraped off from the agar medium and washed by being suspended in a physiological saline solution, and Bacillus subtilis collected through centrifugal separation was taken to be cell spores. The cell spores were suspended in a physiological saline solution at a concentration of about 6×10^6 spores/mL. The suspension of cell spores was prepared so as to have the target concentration of cell spores by being diluted with purified water as appropriate.
On the other hand, a reagent having a pH of 7.0 was prepared and irradiated with light using the LED in the same manner as that described above in (1) to generate radicals. The reagent (chlorine dioxide radical concentration: 600 μmol/L) in which radicals were generated was diluted with a 10 mmol/L potassium phosphate buffer solution (pH: 7.0) as appropriate to prepare samples containing radicals at predetermined concentrations. […] Thereafter, the liquid mixture was scattered over brain heart agar, incubation was performed at 37° C. for 12 hours, and then the number of colonies was counted.
As control 1, a reagent having a pH of 7.0 that was not irradiated with light was added to the suspension of cell spores and was left to stand, and incubation was performed as described above, and then the number of colonies was counted. […]

[2] = ClO2 radical concentration over time (absorption spectrum); type: physicochemical; details: photoirradiation not performed
Protocol: 1 mL of each of the reagents was placed in a disposable cell UV (product name: Two-face transparent semimicro #1941,Nikko Hansen & CO., LTD.), and was irradiated with light via a side surface of the cell using an LED in the same manner as in Example 1 (1) described above. The photoirradiation was performed similarly to Example 1 described above, unless otherwise specified. […] Then, an absorption spectrum was measured over time from the start of irradiation using the double optical path spectrophotometer (product name: UV-2400PC, SHIMADZU CORPORATION), and the molar concentration of chlorite ions (ClO2^−) was calculated from an absorbance at the minimum absorption of the wavelength of 260 nm, and the molar concentration of chlorine dioxide radicals (ClO2^⋅) was calculated from an absorbance at the maximum absorption of the wavelength of 359 nm.

respiratory chain [3] = experiment: Electron transfer activity of the respiratory chain in yeast cells; type: cell-based; details: in proportion to the reduction in survival rate
Excerpt: (§1) Accordingly, it is supposed that the respiratory chain in mitochondria was one target portion of the yeast cells and the Candida cells treated with chlorine dioxide radicals. It is thought that when the respiratory chain is damaged, ROS (Reactive Oxygen Species) are generated, which leads to apoptosis and the death of cells.

Yeast cells = type: cell-based
Protocol: Yeast was inoculated into a modified YPE liquid medium (2% of polypeptone, 1% of yeast extract, 2% of ethanol, and 0.2% of glucose) and was incubated at 30° C. for 1 day. A bacterial liquid was collected from the liquid medium and washed by being suspended in purified water, and yeast cells collected through centrifugal separation were taken as a specimen. The cells were suspended in a 100 mmol/L potassium phosphate buffer solution (pH: 7.0) at a concentration of about 5×10^8 cells/mL. Also, the suspension of cells was diluted with a 100 mmol/L potassium phosphate buffer solution as appropriate so as to have a target concentration of cells.
The reagent containing chlorine dioxide radicals prepared as described above in (3) was diluted with a 10 mmol/L potassium phosphate buffer solution (pH: 7.0) to prepare a sample containing chlorine dioxide radicals at a concentration of 20 μmol/L. On the other hand, the suspension of cells prepared in (1) was diluted with a 10 mmol/L potassium phosphate buffer solution (pH: 7.0) such that the concentration of cells was about 5×10^8 cells/mL. Next, 0.5 mL of the sample containing chlorine dioxide radicals was mixed with 0.5 mL of the suspension of cell spores, and the liquid mixture was left to stand at room temperature for 30 minutes. Thereafter, the liquid mixture was scattered over brain heart agar and incubated at 30° C. for 1 day, and then the number of colonies was counted.
Then, similarly to Experiment 1 described above, 0.5 mL of a yeast solution having a yeast cell concentration of about 5×10^8 cells/mL was added to 0.5 mL of the reagent, and 1 mL of the resultant solution was placed in a disposable cell UV (product name: Two-face transparent semimicro #1941, Nikko Hansen & CO., LTD.), and was irradiated with light using an LED via a side surface of the cell. […] The radiant energy under the above condition was calculated as 37.8 J/cm^2. The solution after the treatment was scattered over brain heart agar after being diluted as appropriate, and incubated at 30° C. for 1 day, and then the number of colonies was counted.

respiratory chain [4] = experiment: Electron transfer activity of the respiratory chain in Candida cells; type: cell-based, Candida albicans; details: in proportion to the reduction in survival rate
Excerpt: as §1

[5] = test system: HT-29 cells (human colon adenocarcinoma cells); details: for cancer cells killed: 455 nm light 72 J/cm^2
Protocol: HT-29 cells (human colon adenocarcinoma cells) were inoculated into each well of a cell incubation microplate (subjected to surface treatment) having 96 wells and grown in a CO2 incubator at 37° C. in the presence of 5% of CO2 until the number of cells reached about 2000 cells/well. 90 μL of McCoy's 5a Medium (the name of a product manufactured by FUJIFILM Wako Pure Chemical Corporation) was used as the cell culture medium. Next, after each treatment described below in (1) to (6) was performed, the medium was replaced with 90 μL of McCoy's 5a Medium and the cells were incubated in the CO2 incubator for 2 days under the above conditions. 10 μL of a WST-8 solution (solution in a product “WST-8 Cell Proliferation Kit”, Funakoshi Co., Ltd.) was added to measure the number of living cells, then incubation was performed in the CO2 incubator (37° C.) for 5 hours, and thereafter an absorbance of 450 nm was measured using a microplate reader. The percentage of the absorbance of each sample relative to an absorbance when treatment (1), which was a control experiment, was performed was calculated. The absorbance when treatment (1) was performed was almost the same as the absorbance of untreated cells.
Conditions of treatments (1) to (6) and percentages of absorbances of samples obtained through the treatments were as follows. The amount by which the percentage of an absorbance decreased from 100% is presumed to be substantially equal to a death rate (%) of cancer cells.
(1) The medium was replaced with 100 μL of PBS (pH: 7.0)** and left to stand at room temperature for 30 minutes. ------ Absorbance percentage: 100% (2) The medium was replaced with 100 μL of PBS (pH: 7.0) and irradiated with light (radiant energy: 72 J/cm^2) at room temperature for 30 minutes using an LED (product name: M455L3, Thorlabs Japan Inc., wavelength: 455 nm, irradiance: 40 mW/cm^2). ------ Absorbance percentage: 96% (3) The medium was replaced with 100 μL of PBS (pH: 7.0) containing 1.4 mM of NaClO2 and left to stand at room temperature for 30 minutes. ------ Absorbance percentage: 97% (4) The medium was replaced with 100 μL of PBS (pH: 7.0) containing 1.4 mM of NaClO2 and irradiated with light (radiant energy: 72 J/cm^2) at room temperature for 30 minutes using an LED (product name: M455L3, Thorlabs Japan Inc., wavelength: 455 nm, irradiance: 40 mW/cm^2). ------ Absorbance percentage: 11% (5) The medium was replaced with 100 μL of PBS (pH: 7.0) containing 2.8 mM of NaClO2 and left to stand at room temperature for 30 minutes. ------ Absorbance percentage: 97% (6) The medium was replaced with 100 μL of PBS (pH: 7.0) containing 2.8 mM of NaClO2 and irradiated with light (radiant energy: 72 J/cm^2) at room temperature for 30 minutes using an LED (product name: M455L3, Thorlabs Japan Inc., wavelength: 455 nm, irradiance: 40 mW/cm^2). ------ Absorbance percentage: 6% **: A phosphate-buffered saline whose pH was adjusted to 7.0 and osmotic pressure was adjusted to be the same as that of a standard phosphate-buffered saline having a pH of 7.5 was used. Specifically, PBS (pH: 7.0) had the following composition: NaCl: 140 mM, KCl: 0.43 mM, KH2PO4: 3.72 mM, Na2HPO4: 5.81 mM.

[6] = Experiment 1: 20 μmol/L chlorine dioxide radical sample mixed 1:1 with cell suspension, room temperature 30 minutes
[7] = control: sodium chlorite aqueous solution not irradiated with light, 25° C. 1 hour

Compound	survival rate relative to untreated (Candida albicans; as Experiment 1 (pre-generated chlorine dioxide radicals))	number of spores decreased to ([1]; chlorine dioxide radical concentration 300 μmol/L, room temperature 30 minutes)	time in which ClO2 radical concentration decreased by about half [2]	electron transfer activity of the respiratory chain (respiratory chain [3])	concentration of cells after treatment (Yeast cells; [6])	survival rate relative to untreated (Yeast cells; [6])	electron transfer activity of the respiratory chain (respiratory chain [4])	survival rate relative to untreated (Candida albicans; as Experiment 2 (sodium chlorite with LED irradiation))	survival rate (Candida albicans; [7])	cancer cells killed ([5]; 1.4 mM)	cancer cells killed ([5]; 2.8 mM)	Absorbance percentage (450 nm, relative to treatment (1)) ([5]; treatment (3): 1.4 mM, PBS pH 7.0, room temperature 30 minutes, no light)	Absorbance percentage (450 nm, relative to treatment (1)) ([5]; treatment (4): 1.4 mM, PBS pH 7.0, 455 nm LED 40 mW/cm^2 30 minutes (72 J/cm^2))	Absorbance percentage (450 nm, relative to treatment (1)) ([5]; treatment (5): 2.8 mM, PBS pH 7.0, room temperature 30 minutes, no light)	Absorbance percentage (450 nm, relative to treatment (1)) ([5]; treatment (6): 2.8 mM, PBS pH 7.0, 455 nm LED 40 mW/cm^2 30 minutes (72 J/cm^2))	reduction in the number of spores ([1]; control 1: reagent pH 7.0 not irradiated with light)	survival rate (Yeast cells; [7])
[O][Cl+][O-] [chlorine dioxide radicals]	about one tenth	≤ 10^−6	~2 h	reduction	about 2.5×10^7 cells/mL	about one tenth	reduction										
sodium chlorite								about one tenth	did not decrease	about 89%	~94%	97%	11%	97%	6%	not confirmed	did not decrease
